Test results as given in patent publication US7795305B2, “CDDO-compounds and combination therapies thereof” (Board of Regents, The University of Texas System, priority 2000, dated 2010).

Tests used:
Format in all cases: cell-based, human
[1] = test system: NB4 cells; assay: Cell surface Fas/CD95 expression by flow cytometry; conditions: 0.5 μM, 48 hours (24.8 in DMSO-treated cells)
Experimental: Immunophenotyping. The PE-conjugated anti-CD11b, FITC-conjugated anti-CD14 monoclonal antibody (mAb) (Becton Dickinson) and PE-conjugated anti-CD95 mAb (PharMingen) were used at a 1/10 dilution. The percentage of positive cells was calculated by subtracting the percentage of cells with a fluorescence intensity greater than the set marker using the isotype control (background) from the percentage of cells with a fluorescence intensity greater than the same marker using the specific antibody.
Mechanisms of CDDO-induced apoptosis in leukemia cell lines and in primary AML samples were also determined. The involvement of the death receptor/Fas pathway was studied in NB4 cells. Treatment with 0.5 μM CDDO induced cell surface Fas/CD95 expression at 48 hours (MFI 34.8 vs 24.8 in DMSO-treated cells and 26 in untreated control). At this concentration, 22.3% of cells were annexin V positive compared with 11.4% in DMSO-controls. At 1 μM, 56.3% of cells were apoptotic. Similarly, 1 μM CDDO induced Fas expression in 7/12 AML CD34+ cells (MFI, 22.3±3.5 in DMSO-controls, 40±4.3 in CDDO-treated CD34+ cells, p<0.01).

[2] = test system: HL-60 cells; assay: Apoptotic sub-G1 cells / apoptosis
Experimental: Cell kinetic and DNA fragmentation studies. The cell cycle kinetics was determined by staining cells with acridine orange for cellular DNA and RNA content followed by flow cytometeric analysis as described. Samples were measured in a FACScan flow cytometer (Becton Dickinson, San Jose, Calif.) using the 488-nm line of a […] argon laser and filter settings for green (530 nm) (DNA) and red (585 nm) (RNA) fluorescence. Ten thousand events were stored in list mode for analysis. The percentage of cells in the “sub G1 peak” defined the proportion of apoptotic cells in the tested populations. […] Cell-cycle kinetics was analyzed using ModFit software (Verity Software House, Inc., Topsham, Me.).
Comparison of CDDO-compounds with other PPARγ ligands. […] In contrast, CDDO induced monocytic differentiation at 0.5 to 1.0 μM and apoptosis at 1 μM in HL-60 cells. […] These experiments will define the ability of CDDO to induce differentiation and apoptosis in comparison to other PPARγ ligands. Similar experiments are contemplated with CDDO-Me.

[3] = test system: U937 cells; assay: Active caspase detection with Phi-Phi-Lux; conditions: 1 μM, 6 hours
Experimental: Detection of active caspases. The cell-permeable fluorogenic substrate Phi-Phi-Lux-G1D2 was administered to monitor caspase activity according to the manufacturer's recommendations (OncoImmunin, Inc, Kensington, Md.). Briefly, 10^6 cells were resuspended in 5 μL of substrate solution and incubated for 1 hour at 37° C. in the dark. After incubation, cells were washed, and the fluorescence emission was determined using the FL-1 channel of a Becton Dickinson FACScan flow cytometer.
CDDO-Me. […] Effects of CDDO-Me on the cleavage of caspase-3 were analyzed utilizing the fluorogenic substrate of caspase-3 Phi-Phi-Lux.

[4] = test system: HL-60 cells; assay: Mitochondrial membrane potential (JC-1, CMXRos); conditions: for cells with low CMXRos staining / cells with low JC-1: 1 μM
Experimental: Cytofluorometric analysis of the Δψm. To evaluate the Δψm, cells were incubated with the cationic lipophilic dye […] (CMXRos; 150 nM; Molecular Probes, Inc., Eugene, Oreg.). CMXRos is incorporated into mitochondria driven by the […] and reacts with thiol residues to form covalent thiol ester bonds. CMXRos fluorescence was recorded by flow cytometry in the FL3 channel. Background values of the apoptosis of control cells cultured without the CDDO-Me or in DMSO-solvent control (<10% CMXRos-low) were subtracted from the values obtained under the experimental conditions.
In a series of experiments, cells were pretreated for 1 hour with 50 μM CyA or 50 μM BA prior to the addition of CDDO-Me. These agents prevent a reduction in Δψm induced by various agents that open mitochondrial permeability transition pores.
An early mitochondrial disruption has been observed in a number of different models of apoptosis. Changes in the cellular content of the cationic lipophilic fluorochrome CMXRos were determined by FACS analysis to measure loss of the mitochondrial membrane potential (Δψ) (Macho et al., 1996). […] Similarly, exposure of HL-60 to CDDO-Me (1 μM) for 2 and 4 hrs increased the number of cells with low JC-1 (57 and 60%) or CMXRos staining (46 and 57%), both assays measuring the decrease in Δψ. CDDO-Me-induced changes in the mitochondrial membrane potential of the cells preceded caspase activation and changes in the composition of the plasma membrane. In order to validate the role of the dissipation of Δψ in CDDO-treated cells the pharmacological inhibitors of permeability transition cyclosporin A (CyA) (Nicolli et al., 1996) (10 μM, Sandoz) and bongkrekic acid (BA) (Marchetti et al., 1996) (Calbiochem, Calif.) were used. […] The same effect was observed using BA (52% in CDDO-Me treated HL-60 cells, 23% when cells were pre-treated with BA).

[5] = test system: U937 S70E Bcl-2 cells; assay: Viability of Bcl-2 mutant transfectants; conditions: 0.1 μM
From the text: (§1) Cell lines. HL-60, KG-1, U937, and Jurkat cell lines were obtained from the American Type Culture Collection (Rockville, Md.). NB4 cells were kindly provided by Dr. M. Lanotte. HL-60-doxorubicin-resistant cells (HL-60-DOX) were also used. U937/Bcl-2 and its appropriate vector controls (U937/pCEP) were provided by Dr. S. Grant. U937 cells were transfected with WT, S70A, or S70E cDNA containing cytomegalovirus plasmids by electroporation (200 V, 975 μF capacitance) and selected and maintained in the medium plus 500 μg/mL G418 (Gibco BRL, Gaithersburg, Md.)
(§2) The effect of CDDO-Me on Bcl-2 phosphorylation was further investigated by performing metabolic labeling studies with ^32P-orthophosphoric acid. […] To further investigate mechanisms of inhibition of Bcl-2 phosphorylation that could may a role in CDDO-Me-induced cell death, the inventors selected U937 cells that were stably transfected with a serine 70→alanine, Bcl-2 mutant (S70A).

[6] = test system: U937/S70A Bcl-2 cells; assay: Viability of Bcl-2 mutant transfectants; conditions: 0.1 μM
From the text: as §1, §2

SMILES	cell surface Fas/CD95 expression, MFI [1]	apoptotic sub-G1 cells ([2]; 1 μM, 48 hrs)	concentration at which apoptosis was induced ([2]; HL-60 cells)	Phi-Phi-Lux positive/PI negative cells [3]	cells with low CMXRos staining ([4]; 2 hrs)	cells with low JC-1 ([4]; 2 hrs)	cells with low CMXRos staining ([4]; 4 hrs)	cells with low JC-1 ([4]; 4 hrs)	cells with Δψ loss ([4]; CDDO-Me alone)	cells with Δψ loss ([4]; cells pre-treated with bongkrekic acid (BA))	viable cells [5]	decrease in viability [6]
CC1(C)CCC2(C(=O)O)CCC3(C)C(C(=O)C=C4C5(C)C=C(C#N)C(=O)C(C)(C)C5CCC43C)C2C1 (stereo not drawn) [CDDO, 2-cyano-3,12-dioxoolen-1,9-dien-28-oic acid]	34.8	34.8%	1 µM									
COC(=O)[C@]12CCC(C)(C)C[C@H]1[C@H]1C(=O)C=C3[C@@]4(C)C=C(C#N)C(=O)C(C)(C)[C@@H]4CC[C@@]3(C)[C@]1(C)CC2 [CDDO-Me]				67%	46%	57%	57%	60%	52%	23%	75%	60%
